Reference: US20050175695A1 (priority 2003, published 2005)
Structures can show the parent of a compound that is named as a salt.

Experiments:
[1] = Aqueous solubility at 25° C. of carvedilol free base and three salts (Table 13); format: physicochemical
Excerpt: Aliquots were taken out at various time-point, filtered through 0.45 μm Acrodisc GHP filter.

[2] = pH-solubility behaviour of carvedilol free base; format: physicochemical; conditions: pH values encountered in the distal small intestine and colon
[3] = both R and S isomer forms; cited from earlier work

| solubility [2] | SMILES | aqueous solubility compared with free base [1] | alpha elimination phase [3] |
| --- | --- | --- | --- |
| – | COc1ccccc1OCCNCC(O)COc1cccc2[nH]c3ccccc3c12 (stereo not drawn) [HBr salt, Carvedilol HBr] | much better aqueous solubility than the free base | – |
| ≤ 0.1 mg per ml | COc1ccccc1OCCNCC(O)COc1cccc2[nH]c3ccccc3c12 (stereo not drawn) [Carvedilol Free Base] | – | about 1.5 hours |
